Reference: article PMC6930570, “2-Arylidene-1-indandiones as Pleiotropic Agents with Antioxidant and Inhibitory Enzymes Activities” (Molecules, 2019)

Columns and labels:
soybean lipoxygenase = molecular target: T1, soybean lipoxygenase (Glycine max, UniProt P08170); assay: Soybean lipoxygenase inhibition in vitro; type: biochemical; conditions: sodium linoleate substrate, no = no action under the experimental conditions; for inhibition at 100 µM: read-out: LOX (% Inhibition 100 µM)
T1 construct: purchased Sigma Chemical, Co. (St. Louis)
T1 sequence (P08170 1-839): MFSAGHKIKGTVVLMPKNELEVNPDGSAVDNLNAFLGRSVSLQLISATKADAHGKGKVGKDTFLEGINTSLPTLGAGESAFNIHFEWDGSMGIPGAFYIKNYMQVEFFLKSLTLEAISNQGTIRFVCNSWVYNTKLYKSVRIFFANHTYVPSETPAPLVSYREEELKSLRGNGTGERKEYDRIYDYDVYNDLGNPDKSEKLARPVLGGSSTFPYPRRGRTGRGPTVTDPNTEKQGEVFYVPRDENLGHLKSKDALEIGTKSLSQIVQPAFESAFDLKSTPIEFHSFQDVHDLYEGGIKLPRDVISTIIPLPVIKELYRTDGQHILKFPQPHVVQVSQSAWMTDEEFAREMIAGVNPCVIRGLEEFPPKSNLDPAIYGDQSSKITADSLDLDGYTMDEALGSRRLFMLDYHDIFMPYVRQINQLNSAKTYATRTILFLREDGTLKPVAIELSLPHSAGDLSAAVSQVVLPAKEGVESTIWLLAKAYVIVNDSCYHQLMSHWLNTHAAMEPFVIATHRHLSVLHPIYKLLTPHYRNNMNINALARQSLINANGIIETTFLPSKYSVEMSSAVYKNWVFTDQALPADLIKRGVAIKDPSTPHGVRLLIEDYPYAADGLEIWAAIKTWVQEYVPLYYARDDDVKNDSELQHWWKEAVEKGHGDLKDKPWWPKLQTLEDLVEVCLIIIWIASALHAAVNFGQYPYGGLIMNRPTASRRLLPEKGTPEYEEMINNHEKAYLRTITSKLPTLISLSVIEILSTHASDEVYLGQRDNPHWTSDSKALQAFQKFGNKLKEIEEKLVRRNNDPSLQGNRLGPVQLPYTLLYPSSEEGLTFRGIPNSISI
Experimental: Thus, we used soybean LOX in our in vitro experiments.
In vitro study was performed as reported previously by our group. Sodium linoleate (0.1 mM) and 0.2 mL of enzyme solution (1/9 × 104 w/v in saline) were used for the incubation of the tested derivatives.

[1] = Reducing activity of the stable radical DPPH; type: biochemical
Experimental: The novel derivatives were studied for their interaction with the sTable 2,2-diphenyl-1-picrylhydrazyl free radical (DPPH)at concentration 50 µM, 100 µM and 200 µM after 20 and 60 min (Table 2). In this assay the DPPH radical is reduced transferring one electron from the antioxidant. Phenolic compounds such as catechol and derivatives generate phenoxide anions with strong antioxidant capacity. Nordihydroguaretic acid (NDGA), the reference compound acts by this mechanism. Compound 10 presents the highest scavenging activity at 100 µM after 20 min correlated with the presence of the phenolic OH. Compounds 3, 4, 5, 7 presented medium activities depending from time and concentration. The presence of the heteroatom O or S seems to influence the activity e.g., derivatives 1, 2, and 3. Replacement of phenyl ring (4) by a thienyl group (1) decreases antioxidant behavior. […] On the contrary the presence of the furyl ring (3) enhances reduction. Additionally, the presence of a π-dimethyl-amino group 6 reduces the scavenging ability whereas its absence in (5), increases the activity. The presence of two conjugated double bonds (5) leads to lower activity compared to the simpler compound 4. Compounds 9 and 10 present the highest milogP values (5.94). Both include a phenolic hydrogen in their structure. […] On the contrary in compound 9 steric reasons are possible to lead to a decrease. Lipophilicity seems to influence the interaction of compound 10.
To a solution of DPPH in absolute ethanol an equal volume of the compounds with final concentrations of 50, 100 and 200 µM from a stock solution of 10 mM (in 1% DMSO and ethanol) was added. After 20 and 60 min the absorbance was recorded at 517 nm at room temperature (Table 2).

[2] = system: carrageenin-induced rat paw edema; assay: Inhibition of the carrageenin-induced rat paw edema (CPE); type: in vivo, Fisher 344 rats; conditions: 0.01 mmol/kg body weight, intraperitoneally, 3.5 h after carrageenin; for inhibition in vivo at 10 µmol/kg: Rattus norvegicus, ip, read-out: CPE % (reduction of the rat paw edema)
Text: Carrageenin-induced rat paw edema (CPE) model was used to study the in vivo anti-inflammatory activity of the tested derivatives and the results are presented in Table 3. […] Compounds 2, 7, 8, 10, and 12 presented small differences in their biological activity. The presence of the thienyl group as well as of the furyl leads to higher anti-inflammatory activity (1 and 3) while substitution with a phenyl group leads to two-fold decrease of the activity (28%).
Edema was induced in the right hind paw of Fisher 344 rats (150–200 g) by the intradermal injection of 0.1 mL 2% carrageenin in water. Both sexes were used while females pregnant were excluded. Each group was composed of 6–15 animals. The animals, which have been bred in our laboratory, were housed under standard conditions and received a diet of commercial food pellets and water ad libitum during the maintenance but they were entirely fasted during the experiment period. Our studies were in accordance with recognised guidelines on animal experimentation. (guidelines for the care and use of laboratory animals published by the Greek Government 160/1991, based on EU regulations 86/609). Rats were kept in the Centre of the School of Veterinary Medicine (EL54 BIO42), Aristotle University of Thessaloniki, which is registered by the official state veterinary authorities (presidential degree 56/2013, in harmonization with the European Directive 2010/63/EEC). The experimental protocols were approved by the Animal Ethics Committee of the Prefecture of Central Macedonia (no. 270079/2500). The tested compounds 0.01 mmol/kg body weight were suspended in water, with a few drops of Tween 80 and ground in a mortar before use and were given intraperitoneally simultaneously with the carrageenin injection. The rats were euthanized 3.5 h after carrageenin injection. The difference between the weight of the injected and uninjected paws was calculated for each animal. The change in paw weight was compared with that in control animals (treated with water) and expressed as a percent inhibition of the edema CPE % values […] [58, 59]. Indomethacin in 0.01 mmol/kg (47%). Values CPE % are the mean from two different experiments with a standard error of the mean less than 10% (Table 3).

Compound	inhibition at 100 µM (soybean lipoxygenase)	LOX (% Inhibition 100 µM) (soybean lipoxygenase)	RA% 50 µM 20 min [1]	RA% 50 µM 60 min [1]	RA% 100 µM 20 min [1]	RA% 100 µM 60 min [1]	RA% 200 µM 20 min [1]	RA% 200 µM 60 min [1]	inhibition in vivo at 10 µmol/kg [2]	CPE % (reduction of the rat paw edema) [2]
Cc1ccsc1C=C1C(=O)c2ccccc2C1=O [Compound 2, (Z)-2-((3-methylthiophen-2-yl)methylene)-1H-indene-1,3(2H)-dione]	45%	–	2%	2%	16%	16%	4%	7%	45%	–
CN(C)c1ccc(/C=C\C=C2C(=O)c3ccccc3C2=O)cc1 [Compound 6, (Z)-2-(3-(4-(dimethylamino)phenyl)allylidene)-1H-indene-1,3(2H)-dione]	17.7%	–	6%	6%	22%	23%	15%	18%	–	–
O=C1C(=Cc2cccc(Oc3ccccc3)c2)C(=O)c2ccccc21 [Compound 7, (Z)-2-(3-phenoxybenzylidene)-1H-indene-1,3(2H)-dione]	67.3%	–	27%	35%	40%	50%	75%	85%	41%	41%
Cc1ccc(C=C2C(=O)c3ccccc3C2=O)o1 [Compound 3, (Z)-2-((5-methylfuran-2-yl)methylene)-1H-indene-1,3(2H)-dione]	35.7%	–	20%	23%	37%	40%	61%	75%	50%	–
O=C1C(=Cc2ccccc2)C(=O)c2ccccc21 [Compound 4, 2-benzylidene-1H-indene-1,3(2H)-dione]	35%	–	5%	10%	26%	32%	23%	32%	28%	–

The next lines start with results.

inhibition at 100 µM (soybean lipoxygenase)	LOX (% Inhibition 100 µM) (soybean lipoxygenase)	Compound	RA% 50 µM 20 min [1]	RA% 50 µM 60 min [1]	RA% 100 µM 20 min [1]	RA% 100 µM 60 min [1]	RA% 200 µM 20 min [1]	RA% 200 µM 60 min [1]	inhibition in vivo at 10 µmol/kg [2]	CPE % (reduction of the rat paw edema) [2]
58.9%	–	O=C1C(=Cc2c[nH]c3ccccc23)C(=O)c2ccccc21 [Compound 12, (Z)-2-((1H-indol-3-yl)methylene)-1H-indene-1,3(2H)-dione]	3%	3%	17%	17%	4%	6%	42%	–
3.6%	–	O=C1C(=Cc2ccc(OCc3ccc(Br)cc3)cc2)C(=O)c2ccccc21 [Compound 8, (Z)-2-(4-((4-bromobenzyl)oxy)benzylidene)-1H-indene-1,3(2H)-dione]	4%	5%	7%	7%	0%	0%	46%	46%
–	no	CC(C)(C)c1cc(C=C2C(=O)c3ccccc3C2=O)cc(C(C)(C)C)c1O [Compound 10, (Z)-2-(3,5-di-tert-butyl-4-hydroxybenzylidene)-1H-indene-1,3(2H)-dione]	13%	17%	100%	85%	71%	71%	42%	–
–	no	CC(C)(C)c1cc(C=C2C(=O)c3ccccc3C2=O)c(O)c(C(C)(C)C)c1 [Compound 9, (Z)-2-(3,5-di-tert-butyl-2-hydroxybenzylidene)-1H-indene-1,3(2H)-dione]	4%	3%	3%	1%	6%	6%	–	–
